Among the data in patent US12649733B2, “3,6-diamino-pyridazin-3-yl derivatives, pharmaceutical compositions containing them and their uses as pro-apoptotic agents” (LES LABORATOIRES SERVIER, priority 2019, dated 2026) are Ki and IC50 values, retold here.

The structures appear in SMILES notation. pIC50, pKi: −log10 of the molar value.

In general, pKi refers to the negative decadic logarithm of the Ki, by convention in mol/L. What is called pIC50 is the negative decadic logarithm of the IC50, by convention in mol/L.

The target of one assay is T1, Bcl-xL protein (Homo sapiens, UniProt Q07817, N197C).
T1 construct: (2-197)[N197C]; His-His (two His8 stretches joined by a Gly/Ala/Ser/Thr linker)
T1 sequence (Q07817 2-197 N197C): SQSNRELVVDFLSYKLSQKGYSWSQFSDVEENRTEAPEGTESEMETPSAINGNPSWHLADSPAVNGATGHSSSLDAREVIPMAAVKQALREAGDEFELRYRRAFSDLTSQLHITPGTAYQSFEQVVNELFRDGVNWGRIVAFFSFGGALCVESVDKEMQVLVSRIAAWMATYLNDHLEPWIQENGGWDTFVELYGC
As to the kind of experiment: Fluorescence quenching assay (PUMA peptide displacement). Type of assay: binding. Conditions: 1 nM protein, 400 nM peptide, 2 hours at 23° C.; KI determined from IC50. The method, boiled down:
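Compounds were tested as an 11-point series in pH 7.4 HEPES/NaCl/Tween buffer with 5% DMSO, 2 h at 23 °C. Cy5-tagged Bcl-xL(2-197, N197C) at 1 nM and quencher-tagged PUMA peptide at 400 nM were used. Competitive binders restore fluorescence (620/680 nm), and IC50 values were converted to KI.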

The test system of a further assay is H146 cells. The assay can be described thus: H146 cell viability, MTT assay. Conditions: Homo sapiens, NCI-H146, 48 h, 48 h exposure. Type of assay: cell-based. The method, boiled down: (§1)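 Viability read by MTT reduction (OD 540 nm after overnight SDS/HCl lysis) after 48 h compound treatment of cells in RPMI 1640/10% FBS. Triplicates at nine concentrations, 3.16-fold apart; four-parameter curve fitting yields IC50.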
On the technique in general: Tetrazolium dyes change colour on reduction, which living cells bring about.

The subject of a further assay is MOLT-4 cells. The assay can be described thus: MOLT-4 cell viability, MTT assay. Type of assay: cell-based. Conditions: Homo sapiens, MOLT-4, 48 h, 48 h exposure. The method, boiled down:
as §1

In the case of `Cc1cc(N(CCCCCN2CCNCC2)c2nc(C(=O)O)c(CCCOc3ccc(C#CCN(C)C)cc3F)s2)nnc1Nc1nc2ccccc2s1` [Example 189, 2-[[6-(1,3-Benzothiazol-2-ylamino)-5-methyl-pyridazin-3-yl]-(5-piperazin-1-ylpentyl)amino]-5-[3-[4-[3-(dimethylamino)prop-1-ynyl]-2-fluoro-phenoxy]propyl]thiazole-4-carboxylic acid], at Bcl-xL protein, the pKi was 11.13. For the same compound, the pIC50 with H146 cells is 7.02; in the assay on MOLT-4 cells it was 6.77.

With `CNCCN(C)CCCCCN(c1cc(C)c(Nc2nc3ccccc3s2)nn1)c1nc(C(=O)O)c(CCCOc2ccc(C#CCN(C)C)cc2F)s1` [Example 190, 2-[[6-(1,3-Benzothiazol-2-ylamino)-5-methyl-pyridazin-3-yl]-[5-[methyl-[2-(methylamino)ethyl]amino]pentyl]amino]-5-[3-[4-[3-(dimethylamino)prop-1-ynyl]-2-fluoro-phenoxy]propyl]thiazole-4-carboxylic acid], the pKi on Bcl-xL protein was 11.49. Moreover, the pIC50 in the assay on H146 cells is 7.11; in the assay on MOLT-4 cells, 7.26.

On to `Cc1cc(N(CCCCCN)c2nc(C(=O)O)c(CCCOc3ccc(C#CCN(C)C)cc3F)s2)nnc1Nc1nc2ccccc2s1` [Example 191, 2-[5-Aminopentyl-[6-(1,3-benzothiazol-2-ylamino)-5-methyl-pyridazin-3-yl]amino]-5-[3-[4-[3-(dimethylamino)prop-1-ynyl]-2-fluoro-phenoxy]propyl]thiazole-4-carboxylic acid], for which the pKi on Bcl-xL protein was 11.55. The figures for the pIC50 in the assay with H146 cells and in the assay on MOLT-4 cells were 7.08 and 5.66, respectively.

`Cc1cc(N(CCCCN)c2nc(C(=O)O)c(CCCOc3ccc(C#CCN(C)C)cc3F)s2)nnc1Nc1nc2ccccc2s1` [Example 192, 2-[4-Aminobutyl-[6-(1,3-benzothiazol-2-ylamino)-5-methyl-pyridazin-3-yl]amino]-5-[3-[4-[3-(dimethylamino)prop-1-ynyl]-2-fluoro-phenoxy]propyl]thiazole-4-carboxylic acid]: the pKi at Bcl-xL protein was 11.54. Further, the pIC50 in the assay on H146 cells is 7.92; with MOLT-4 cells, 7.02.

In the case of `CNCC#Cc1ccc(OCCCc2sc(N(CCCC(O)CN(C)C)c3cc(C)c(Nc4nc5ccccc5s4)nn3)nc2C(=O)O)c(F)c1` (stereo not drawn) [Example 193, 2-[[6-(1,3-Benzothiazol-2-ylamino)-5-methyl-pyridazin-3-yl]-[5-(dimethylamino)-4-hydroxy-pentyl]amino]-5-[3-[2-fluoro-4-[3-(methylamino)prop-1-ynyl]phenoxy]propyl]thiazole-4-carboxylic acid], the pKi on Bcl-xL protein is 11.89. Also, the pIC50 in the assay with H146 cells is 7.19; in the assay with MOLT-4 cells it was 7.03.

As to `CNCCCCCN(c1cc(C)c(Nc2nc3ccccc3s2)nn1)c1nc(C(=O)O)c(CCCOc2ccc(C#CCN(C)C)cc2F)s1` [Example 194, 2-[[6-(1,3-Benzothiazol-2-ylamino)-5-methyl-pyridazin-3-yl]-[5-(methylamino)pentyl]amino]-5-[3-[4-[3-(dimethylamino)prop-1-ynyl]-2-fluoro-phenoxy]propyl]thiazole-4-carboxylic acid], the pKi at Bcl-xL protein is 11.49. Also, the pIC50 in the assay on H146 cells is 7.57; with MOLT-4 cells, 6.89.

As to `Cc1cc(N(CCCCCNCCCN2CCN(C)CC2)c2nc(C(=O)O)c(CCCOc3ccc(C#CCN(C)C)cc3F)s2)nnc1Nc1nc2ccccc2s1` [Example 195, 2-[[6-(1,3-Benzothiazol-2-ylamino)-5-methyl-pyridazin-3-yl]-[5-[3-(4-methylpiperazin-1-yl)propylamino]pentyl]amino]-5-[3-[4-[3-(dimethylamino)prop-1-ynyl]-2-fluoro-phenoxy]propyl]thiazole-4-carboxylic acid], at Bcl-xL protein, the pKi was 11.74. Further, the pIC50 in the assay on H146 cells and in the assay with MOLT-4 cells was 6.28 throughout.

On to `Cc1cc(N(C)c2nc(C(=O)O)c(CCCOc3ccc(C#CCN4CCOCC4)cc3F)s2)nnc1Nc1nc2ccccc2s1` [Example 198, 2-[[6-(1,3-Benzothiazol-2-ylamino)-5-methyl-pyridazin-3-yl]-methyl-amino]-5-[3-[2-fluoro-4-(3-morpholinoprop-1-ynyl)phenoxy]propyl]thiazole-4-carboxylic acid], for which the pKi at Bcl-xL protein was 11.14. Further, the values for the pIC50 with H146 cells and with MOLT-4 cells were 5.85 and 8.80, respectively.

Regarding `CNCC#Cc1ccc(OCCCc2sc(N(CCCCCCN(C)C)c3cc(C)c(Nc4nc5ccccc5s4)nn3)nc2C(=O)O)c(F)c1` [Example 199, 2-[[6-(1,3-Benzothiazol-2-ylamino)-5-methyl-pyridazin-3-yl]-[6-(dimethylamino)hexyl]amino]-5-[3-[2-fluoro-4-[3-(methylamino)prop-1-ynyl]phenoxy]propyl]thiazole-4-carboxylic acid], at Bcl-xL protein, the pKi is 12.00. Moreover, the pIC50 in the assay with H146 cells was 7.19; in the assay with MOLT-4 cells it was 7.59.

In the case of `CNCC#Cc1ccc(OCCCc2sc(N(CCCN(C)C)c3cc(C)c(Nc4nc5ccccc5s4)nn3)nc2C(=O)O)c(F)c1` [Example 200], at Bcl-xL protein, the pKi was 11.11. For the same compound, the pIC50 with H146 cells was 6.94; with MOLT-4 cells, 6.16.

For the compound `CNCC#Cc1ccc(OCCCc2sc(N(CC[N+](C)(C)C)c3cc(C)c(Nc4nc5ccccc5s4)nn3)nc2C(=O)[O-])c(F)c1` [Example 201, 2-[[6-(1,3-Benzothiazol-2-ylamino)-5-methyl-pyridazin-3-yl]-[2-(trimethylammonio)ethyl]amino]-5-[3-[2-fluoro-4-[3-(methylamino)prop-1-ynyl]phenoxy]propyl]thiazole-4-carboxylate], the negative-log Ki (pKi) at Bcl-xL protein is 11.72. Besides, the pIC50 in the assay on H146 cells is 7.12; in the assay with MOLT-4 cells it was 6.38.

As for `Cc1cc(N(C)c2nc(C(=O)O)c(CCCOc3ccc(C#CCN4CCCC4)cc3F)s2)nnc1Nc1nc2ccccc2s1` [Example 203, 2-[[6-(1,3-Benzothiazol-2-ylamino)-5-methyl-pyridazin-3-yl]-methyl-amino]-5-[3-[2-fluoro-4-(3-pyrrolidin-1-ylprop-1-ynyl)phenoxy]propyl]thiazole-4-carboxylic acid], the pKi at Bcl-xL protein was 11.66. The pIC50 in the assay on H146 cells is 8.41; in the assay on MOLT-4 cells, 9.12.

In the case of `Cc1cc(N(C)c2nc(C(=O)O)c(CCCOc3ccc(C#CCN4CCCCC4)cc3F)s2)nnc1Nc1nc2ccccc2s1` [Example 204, 2-[[6-(1,3-Benzothiazol-2-ylamino)-5-methyl-pyridazin-3-yl]-methyl-amino]-5-[3-[2-fluoro-4-[3-(1-piperidyl)prop-1-ynyl]phenoxy]propyl]thiazole-4-carboxylic acid], the pKi on Bcl-xL protein is 11.22. For the same compound, the pIC50 is 8.14 in the assay with H146 cells and 9.15 in the assay on MOLT-4 cells.

Take `Cc1cc(N(C)c2nc(C(=O)O)c(CCCOc3ccc(C#CC(C)N(C)C)cc3F)s2)nnc1Nc1nc2ccccc2s1` (stereo not drawn) [Example 205, 2-[[6-(1,3-Benzothiazol-2-ylamino)-5-methyl-pyridazin-3-yl]-methyl-amino]-5-[3-[4-[3-(dimethylamino)but-1-ynyl]-2-fluoro-phenoxy]propyl]thiazole-4-carboxylic acid]: on Bcl-xL protein, the pKi is 11.64. For the same compound, the pIC50 with H146 cells was not below 8.23; in the assay with MOLT-4 cells, 9.43.

Regarding `CNCC#Cc1ccc(OCCCc2sc(N(CCN(C)C)c3cc(C)c(Nc4nc5ccccc5s4)nn3)nc2C(=O)O)c(F)c1` [Example 207, 2-[[6-(1,3-Benzothiazol-2-ylamino)-5-methyl-pyridazin-3-yl]-[2-(dimethylamino)ethyl]amino]-5-[3-[2-fluoro-4-[3-(methylamino)prop-1-ynyl]phenoxy]propyl]thiazole-4-carboxylic acid], at Bcl-xL protein, the pKi is 11.43. Further, the pIC50 in the assay on H146 cells is 5.97; in the assay with MOLT-4 cells, 5.48.

Regarding `Cc1cc(N(CCCC(O)C[N+](C)(C)C)c2nc(C(=O)[O-])c(CCCOc3ccc(C#CCN(C)C)cc3F)s2)nnc1Nc1nc2ccccc2s1` (stereo not drawn) [Example 211, 2-[[6-(1,3-Benzothiazol-2-ylamino)-5-methyl-pyridazin-3-yl]-[4-hydroxy-5-(trimethylammonio)pentyl]amino]-5-[3-[4-[3-(dimethylamino)prop-1-ynyl]-2-fluoro-phenoxy]propyl]thiazole-4-carboxylate], at Bcl-xL protein, the pKi is 11.19. In addition, the pIC50 with H146 cells was 7.18; in the assay on MOLT-4 cells, 6.32.

Consider `CNCC#Cc1ccc(OCCCc2sc(N(CCCCC[N+](C)(C)CCCS(=O)(=O)[O-])c3cc(C)c(Nc4nc5ccccc5s4)nn3)nc2C(=O)O)c(F)c1` [Example 212, 3-[5-[[6-(1,3-Benzothiazol-2-ylamino)-5-methyl-pyridazin-3-yl]-[4-carboxy-5-[3-[2-fluoro-4-[3-(methylamino)prop-1-ynyl]phenoxy]propyl]thiazol-2-yl]amino]pentyl-dimethyl-ammonio]propane-1-sulfonate], for which the pKi on Bcl-xL protein was 12.00. In addition, the figures for the pIC50 with H146 cells and with MOLT-4 cells were 5.49 and 5.54, respectively.

Regarding `CNCC#Cc1ccc(OCCCc2sc(N(CCCCCN(C)C)c3cc(C)c(Nc4nc5ccccc5s4)nn3)nc2C(=O)O)c(F)c1` [Example 213, 2-[[6-(1,3-Benzothiazol-2-ylamino)-5-methyl-pyridazin-3-yl]-[5-(dimethylamino)pentyl]amino]-5-[3-[2-fluoro-4-[3-(methylamino)prop-1-ynyl]phenoxy]propyl]thiazole-4-carboxylic acid], the negative-log Ki (pKi) on Bcl-xL protein is 11.82. In addition, the pIC50 in the assay with H146 cells is 7.14; with MOLT-4 cells it was 7.03.
